The results in this text go back to US20210290514A1, “An Antimicrobial Combination Composition Comprising Glycerol Derivatives and Bicyclic Compounds” (CLARIANT INTERNATIONAL LIMITED, priority 2018, published 2021).

Experiment in all cases: in vitro growth inhibition of a microbial strain by compositions formulated to pH 5.5
Holding throughout (assay type): cell-based

The subject of one experiment is Pseudomonas aeruginosa. Here is the method:
(§1) Several antimicrobial combinations compositions were formulated to pH of 5.5. These compositions were tested for their ability to inhibit in vitro the growth of a microbial strain. “Green” indicates a substantial inhibition, “Yellow” indicates an intermediate inhibition, and “Red” indicates little to no inhibition.

The next experiment concerns Staphylococcus aureus. Here is the method:
as §1

In a further experiment the test system is Candida albicans. Here is the method:
as §1

Experiment [1] relates to Aspergillus brasilliensis. Here is the method:
as §1

For a further experiment, the system named is Echerichia coli. Here is the method:
as §1

`CCCCCCCCOCC(O)CO` (stereo not shown) [Octylglycerin, 3-[(n-octyl)oxy]-1,2-propanediol]: the “antimicrobial activity, Pseudomonas aeruginosa” value in the experiment on Pseudomonas aeruginosa (0.5%), with Pseudomonas aeruginosa (0.8%), in the experiment on Pseudomonas aeruginosa (1.0%) and in the experiment on Pseudomonas aeruginosa (1.5%) was “Green” throughout. The “antimicrobial activity, Staphylococcus aureus” value with Staphylococcus aureus (0.5%), in the experiment on Staphylococcus aureus (0.8%), in the experiment on Staphylococcus aureus (1.0%) and in the experiment with Staphylococcus aureus (1.5%) was “Green” each time. The “antimicrobial activity, Candida albicans” value in the experiment on Candida albicans (0.5%), in the experiment on Candida albicans (0.8%), in the experiment on Candida albicans (1.0%) and in the experiment on Candida albicans (1.5%) was “Green” throughout. The “antimicrobial activity, Aspergillus brasilliensis” value is reported as “Yellow” in experiment [1] (0.5%), “Green” in experiment [1] (0.8%), “Yellow” in experiment [1] (1.0%) and “Yellow” in experiment [1] (1.5%). Besides, the “antimicrobial activity, Echerichia coli” value with Echerichia coli (0.5%), in the experiment with Echerichia coli (0.8%), in the experiment on Echerichia coli (1.0%) and with Echerichia coli (1.5%) was “Green” each time.

On to `CCCCC(CC)COCC(O)CO` (stereo not shown) [Velsan ethylhexylglycerin, 3-[(2-ethylhexyl)oxy]-1,2-propanediol], for which the “antimicrobial activity, Pseudomonas aeruginosa” value in the experiment with Pseudomonas aeruginosa (0.5%), with Pseudomonas aeruginosa (0.8%), in the experiment on Pseudomonas aeruginosa (1.0%) and in the experiment on Pseudomonas aeruginosa (1.5%) was “Green” in each case. In addition, the “antimicrobial activity, Staphylococcus aureus” value in the experiment with Staphylococcus aureus (0.5%), in the experiment on Staphylococcus aureus (0.8%), with Staphylococcus aureus (1.0%) and in the experiment with Staphylococcus aureus (1.5%) was “Green” throughout. In addition, the “antimicrobial activity, Candida albicans” value with Candida albicans (0.5%), in the experiment on Candida albicans (0.8%), in the experiment with Candida albicans (1.0%) and in the experiment with Candida albicans (1.5%) was “Green” in each case. For the same compound, the “antimicrobial activity, Aspergillus brasilliensis” value in experiment [1] (0.5%), in experiment [1] (0.8%), in experiment [1] (1.0%) and in experiment [1] (1.5%) was “Red” in each case. Further, the “antimicrobial activity, Echerichia coli” value in the experiment on Echerichia coli (0.5%), in the experiment with Echerichia coli (0.8%), in the experiment with Echerichia coli (1.0%) and in the experiment on Echerichia coli (1.5%) was “Green” in each case.
